“Also recorded” adds a separate entry of the source.
Experiments:
[1] = Tumor growth, Compound BB alone and with 5-FU (FIG. 35); format: in vivo
[2] = test system: T cell activation (IFN-γ in response to ConA); test: T cell activation in human whole blood (Con-A, IFN-γ readout); format: cell-based; conditions: 24 hours, read-out: IC50, T cell activation as measured by inhibition of IFN-γ
Method: The purpose of this study is to evaluate the effect of various antigens (Con-A) in T cell activation in Human Whole Blood vs. 1:1 Diluted Blood using test compounds at 24 hour time-point.
T-cell Activation Media includes RPMI-1000 ml, MEM NEAA-10 ml, Sodium Pyruvate (100 mM)-10 ml, Pen Strep-10 ml, 2-Mercaptoethanol-1 ml, and FBS-100 ml. 100 ul of whole blood were plated in 96 well plate. Used only the 60 inside wells and filled the outside with media or PBS. Diluted human whole blood with 5% Serum RPMI 1640 1:1 and plate 100 ul in 96 well plate. Used only the 60 inside wells and filled the outside with media or PBS.
The compound was diluted using DMSO (Sigma hybridmax). For 1000 nM highest concentration starting from a 10 mM stock, added 300 ul of DMSO into deep well plates. To the highest concentration add 10 ul of 10 mM compound stock.
A media plate was prepared from DMSO plate by taking 100 ul and go into 900 ul media in new deep well plate, taping plate, and putting on mixer for 5 minutes.
The rested cell plates were removed from incubator. Added 12 uL of diluted compound from media plate (final DMSO is 1%), and incubated for 45 minutes.
Con-A was prepared as follows: 200 ul stock into 1 ml Media, 100 ul of that into 1 ml Media, 100 ul of that into 1 ml Media. […] This was analyzed after 24 Hours.
10× stock in media, added 12 ul per well. […] Analyzed with multiplex elisa from MSD. […]

Cytochrome P450 isoforms = test: Cytochrome P450 inhibition (ADME characteristics, Table 25); format: in vitro ADME; conditions: main Cytochrome P450 isoforms
From the text: (§1) These properties indicate the compound's suitability for in vivo administration.

LLC tumor brei = LLC tumor brei model, immune cells in tumors; format: in vivo
[3] = test system: LPS-induced neutrophil influx into BALF; test: LPS-induced neutrophilia in rats, oral administration; format: in vivo; conditions: rat, p.o., 4 hours post-LPS challenge; dose dependent
Method: This study also includes assessment of the exposure to the compounds in plasma and lung tissues.
Ref C is budesonide p.o. The compound was administered p.o. and about 1 hour later, LPS was administered intra-tracheally and plasma was collected. After about 5 hours, plasma and bronchoalveolar lavage samples were collected.

[4] = Pharmacokinetics in rodent and non-rodent animal species (ADME characteristics, Table 25)
From the text: as §1

## C[C@H](NC(=O)c1c(N)nn2cccnc12)c1cc2cccc(C#Cc3cnn(C)c3)c2c(=O)n1-c1ccccc1 [Compound BB]
[1]; Compound BB alone
  tumor growth: reduction in tumor growth
[1]; co-administration of Compound BB and 5-FU
  tumor growth: further reduction
[2]
  IC50: 2.5 µM
Cytochrome P450 isoforms
  CYP inhibition: does not substantially inhibit CYP; also recorded: low potential for reversible inhibition
LLC tumor brei
  CD206+ M2 polarized suppressive macrophages: reduces
  TAMs in tumor: decreased
[3]
  Neutrophil in bronchoalveolar lavage fluid (BALF): reduced neutrophil in bronchoalveolar lavage fluid (BALF); also recorded: more profound effect on neutrophil influx
[4]
  Clearance and half-life in vivo: low clearance and a long half-life in vivo
